Test results taken from US11878975B2, “Substituted indole compounds useful as TLR inhibitors” (BRISTOL-MYERS SQUIBB COMPANY, priority 2017, dated 2024).
pIC50: −log10 of the molar value.

What was measured:
Type in all cases: cell-based
[1] = biological target: T1, human TLR8 (Homo sapiens, UniProt Q9NR97); test: TLR8 inhibition reporter assay (HEK-Blue cells, SEAP reporter, R848 stimulation); conditions: HEK-Blue cells overexpressing human TLR8, SEAP reporter, R848 15.9 μM
T1 construct: host or cells: HEK-Blue cells
T1 sequence (Q9NR97 27-1041): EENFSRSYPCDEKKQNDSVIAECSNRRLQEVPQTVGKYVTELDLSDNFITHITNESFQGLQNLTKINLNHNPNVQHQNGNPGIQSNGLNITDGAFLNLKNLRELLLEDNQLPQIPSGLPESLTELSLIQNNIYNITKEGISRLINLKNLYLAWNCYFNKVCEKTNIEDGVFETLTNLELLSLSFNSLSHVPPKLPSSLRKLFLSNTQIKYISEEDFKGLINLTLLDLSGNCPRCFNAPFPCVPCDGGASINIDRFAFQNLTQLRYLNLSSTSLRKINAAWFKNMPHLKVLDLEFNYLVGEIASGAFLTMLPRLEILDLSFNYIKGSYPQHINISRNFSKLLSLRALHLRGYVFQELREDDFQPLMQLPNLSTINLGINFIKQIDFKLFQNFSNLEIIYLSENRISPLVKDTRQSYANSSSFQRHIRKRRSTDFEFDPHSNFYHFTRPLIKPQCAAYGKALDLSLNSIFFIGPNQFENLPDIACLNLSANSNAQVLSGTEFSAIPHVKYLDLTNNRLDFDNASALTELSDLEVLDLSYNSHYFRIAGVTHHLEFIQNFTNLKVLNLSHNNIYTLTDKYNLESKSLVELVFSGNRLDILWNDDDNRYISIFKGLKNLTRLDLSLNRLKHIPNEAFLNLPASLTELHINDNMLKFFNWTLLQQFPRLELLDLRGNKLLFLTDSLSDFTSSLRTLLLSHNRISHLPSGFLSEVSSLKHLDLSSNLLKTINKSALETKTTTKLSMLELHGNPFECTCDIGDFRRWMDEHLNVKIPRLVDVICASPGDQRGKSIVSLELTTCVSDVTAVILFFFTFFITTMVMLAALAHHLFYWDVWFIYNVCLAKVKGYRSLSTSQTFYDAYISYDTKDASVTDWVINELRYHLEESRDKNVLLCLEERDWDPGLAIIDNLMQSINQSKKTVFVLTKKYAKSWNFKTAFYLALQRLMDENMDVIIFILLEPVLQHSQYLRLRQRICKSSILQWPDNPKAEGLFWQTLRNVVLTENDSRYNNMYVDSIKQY
Experimental: (§1) TLR7/8/9 Inhibition Reporter Assays
(§2) HEK-Blue™-cells (Invivogen) overexpressing human TLR7, TLR8 or TLR9 receptors were used for screening inhibitors of these receptors using an inducible SEAP (secreted embryonic alkaline phosphatase) reporter gene under the control of the IFN-β minimal promoter fused to five NF-κB and AP-1-binding sites. Briefly, cells are seeded into Greiner 384 well plates (15000 cells per well for TLR7, 20,000 for TLR8 and 25,000 for TLR9) and then treated with test compounds in DMSO to yield a final dose response concentration range of 0.05 nM-50 μM. After a 30 minute compound pre-treatment al room temperature, the cells are then stimulated with a TLR7 ligand (gardiquimod at a final concentration of 7.5 μM), TLR8 ligand (R848 at a final concentration of 15.9 μM) or TLR9 ligand (ODN2006 at a final concentration of 5 nM) to activate NF-κB and AP-1 which induce the production of SEAP. After a 22 hour incubation at 37° C., 5% CO2, SEAP levels are determined with the addition of HEK-Blue™ Detection reagent (Invivogen), a cell culture medium that allows for detection of SEAP, according to manufacturer's specifications. The percent inhibition is determined as the % reduction in the HEK-Blue signal present in wells treated with agonist plus DMSO alone compared to wells treated with a known inhibitor.

[2] = biological target: T2, human TLR7 (Homo sapiens, UniProt Q9NYK1); test: TLR7 inhibition reporter assay (HEK-Blue cells, SEAP reporter, gardiquimod stimulation); conditions: HEK-Blue cells overexpressing human TLR7, SEAP reporter, gardiquimod 7.5 μM
T2 construct: host or cells: HEK-Blue cells
T2 sequence (Q9NYK1 27-1049): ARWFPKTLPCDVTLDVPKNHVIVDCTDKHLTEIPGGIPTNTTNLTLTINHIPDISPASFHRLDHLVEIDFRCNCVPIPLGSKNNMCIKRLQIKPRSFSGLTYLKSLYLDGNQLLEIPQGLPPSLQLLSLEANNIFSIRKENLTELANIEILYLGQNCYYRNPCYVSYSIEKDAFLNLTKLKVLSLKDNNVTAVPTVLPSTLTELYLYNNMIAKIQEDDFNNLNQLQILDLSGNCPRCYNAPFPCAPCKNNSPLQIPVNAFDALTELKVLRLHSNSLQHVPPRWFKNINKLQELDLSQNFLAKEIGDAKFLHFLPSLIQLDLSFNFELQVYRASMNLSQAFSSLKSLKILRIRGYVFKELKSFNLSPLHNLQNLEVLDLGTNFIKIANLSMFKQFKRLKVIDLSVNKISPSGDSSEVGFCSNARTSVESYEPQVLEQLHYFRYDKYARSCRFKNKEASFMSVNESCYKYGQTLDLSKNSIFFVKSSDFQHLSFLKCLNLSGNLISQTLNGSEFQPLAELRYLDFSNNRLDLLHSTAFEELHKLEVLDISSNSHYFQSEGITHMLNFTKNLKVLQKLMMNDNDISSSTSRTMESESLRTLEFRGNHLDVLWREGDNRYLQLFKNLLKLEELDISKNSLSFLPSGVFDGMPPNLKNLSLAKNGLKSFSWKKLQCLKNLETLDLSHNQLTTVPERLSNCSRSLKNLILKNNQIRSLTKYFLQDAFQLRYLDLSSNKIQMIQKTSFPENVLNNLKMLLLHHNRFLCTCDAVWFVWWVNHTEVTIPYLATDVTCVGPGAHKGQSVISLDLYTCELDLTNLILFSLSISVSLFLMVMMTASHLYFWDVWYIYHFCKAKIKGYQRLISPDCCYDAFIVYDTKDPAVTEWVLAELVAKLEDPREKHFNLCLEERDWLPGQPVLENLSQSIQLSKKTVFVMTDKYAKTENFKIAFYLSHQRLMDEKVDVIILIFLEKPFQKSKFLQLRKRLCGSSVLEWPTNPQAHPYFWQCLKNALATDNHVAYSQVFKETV
Experimental: as §1, §2

[3] = biological target: T3, human TLR9 (Homo sapiens, UniProt Q9NR96); test: TLR9 inhibition reporter assay (HEK-Blue cells, SEAP reporter, ODN2006 stimulation); conditions: HEK-Blue cells overexpressing human TLR9, SEAP reporter, ODN2006 5 nM
T3 construct: host or cells: HEK-Blue cells
T3 sequence (Q9NR96 26-1032): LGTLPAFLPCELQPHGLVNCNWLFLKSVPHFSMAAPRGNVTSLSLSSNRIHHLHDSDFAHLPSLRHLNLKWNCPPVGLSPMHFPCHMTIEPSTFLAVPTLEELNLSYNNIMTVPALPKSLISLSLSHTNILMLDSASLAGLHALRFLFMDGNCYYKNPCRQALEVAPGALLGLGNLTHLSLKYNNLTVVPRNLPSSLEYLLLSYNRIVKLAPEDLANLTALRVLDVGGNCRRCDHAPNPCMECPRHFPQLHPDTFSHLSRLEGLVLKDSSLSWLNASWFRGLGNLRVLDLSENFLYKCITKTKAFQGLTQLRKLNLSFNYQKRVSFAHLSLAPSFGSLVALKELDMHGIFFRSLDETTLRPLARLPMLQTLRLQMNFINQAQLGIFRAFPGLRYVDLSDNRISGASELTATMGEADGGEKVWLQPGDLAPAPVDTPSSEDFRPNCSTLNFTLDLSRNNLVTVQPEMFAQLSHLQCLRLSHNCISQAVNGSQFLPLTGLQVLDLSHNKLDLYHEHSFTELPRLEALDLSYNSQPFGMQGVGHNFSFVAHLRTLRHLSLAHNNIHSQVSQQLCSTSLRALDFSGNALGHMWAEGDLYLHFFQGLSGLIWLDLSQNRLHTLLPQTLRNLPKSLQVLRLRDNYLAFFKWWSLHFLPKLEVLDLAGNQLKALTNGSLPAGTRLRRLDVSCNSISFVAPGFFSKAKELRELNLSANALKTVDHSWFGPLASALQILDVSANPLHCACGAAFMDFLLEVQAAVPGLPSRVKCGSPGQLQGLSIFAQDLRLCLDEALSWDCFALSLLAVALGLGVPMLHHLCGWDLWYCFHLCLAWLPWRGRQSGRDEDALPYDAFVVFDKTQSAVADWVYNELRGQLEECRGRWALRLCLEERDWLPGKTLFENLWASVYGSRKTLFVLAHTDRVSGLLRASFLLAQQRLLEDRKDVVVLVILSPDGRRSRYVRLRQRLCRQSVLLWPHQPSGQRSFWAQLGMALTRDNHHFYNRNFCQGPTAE
Experimental: as §1, §2

Row | Structure (SMILES) | pIC50 [1] | pIC50 [2] | pIC50 [3]
1 | COc1cc(-c2[nH]c3ccc(C4CCC(NC5(C)COC5)CC4)cc3c2C(C)C)cn2ncnc12 (single isomer, unassigned) [Example 45] | 8.42 | 9.00 | 5.70
2 | COc1ccc(-c2[nH]c3ccc(C4CCCNC4)cc3c2C(C)C)cc1OC (stereo not shown) [Example 592] | 8.00 | 7.51 | 5.83
3 | Cc1cc(-c2[nH]c3ccc(C4CN(C5COC5)C4)cc3c2C(C)C)cn2ncnc12 [Example 271] | 7.66 | 8.30 | 4.54
4 | Cc1cc(-c2[nH]c3ccc(CCN4CC[C@@H](F)C4)cc3c2C(C)C)cn(C)c1=O [Example 410] | 9.14 | 7.89 | 4.81
5 | Cc1c(-c2[nH]c3ccc(CC4CCCN4CCS(C)(=O)=O)cc3c2C(C)C)cn2cnnc2c1C (stereo not shown) [Example 428] | 7.82 | 7.31 | 4.79
6 | COc1cc(-c2[nH]c3ccc(C4CCC(NC(=O)CN5CCCC5)CC4)cc3c2C(C)C)cn2ncnc12 (stereo not shown) [Example 133] | 9.12 | 9.55 | 5.69
7 | CNC(=O)CN1CCOC(c2ccc3[nH]c(-c4cn5ncnc5c(C)c4C)c(C(C)C)c3c2)C1 (stereo not shown) [Example 311] | 7.42 | 7.77 | < 4.30
8 | Cc1cc(-c2[nH]c3ccc(C4CN(CC(=O)N(C)C)CCO4)cc3c2C(C)C)cn2ncnc12 (single isomer, unassigned) [Example 308] | 7.74 | 8.10 | < 4.30
9 | COc1cc(-c2[nH]c3ccc(C4CN(C(=O)CN(C)C)CCO4)cc3c2C(C)C)cn2ncnc12 (stereo not shown) [Example 332] | 8.21 | 9.19 | 5.55
10 | COc1cc(-c2[nH]c3ccc(C4CNCCO4)cc3c2C(C)C)cn2ncnc12 (stereo not shown) [Example 285] | 9.25 | 9.37 | 6.02
11 | COc1cc(-c2[nH]c3ccc(C4CCC(NCC(=O)NC5COC5)CC4)cc3c2C(C)C)cn2ncnc12 (stereo not shown) [Example 165] | 8.77 | 9.51 | 5.70
12 | CCc1c(-c2ccnc(C)c2)[nH]c2ccc(CNC(=O)CCN(C)C)cc12 [Example 395, 3-(dimethylamino)-N-{[3-ethyl-2-(2-methylpyridin-4-yl)-1H-indol-5-yl]methyl}propanamide] | 6.74 | 6.02 | 6.08
13 | CC(C)c1c(-c2ccnc3[nH]ncc23)[nH]c2ccc(/C=C/C3CCNCC3)cc12 [Example 422] | 8.68 | 7.89 | 6.34
14 | Cc1cc(-c2[nH]c3ccc(C4CCC(O)CC4)cc3c2C(C)C)ccn1 (stereo not shown) [Example 173] | 7.25 | 7.34 | < 4.30
15 | Cc1c(-c2[nH]c3ccc(C4CC(N)C4)cc3c2C(C)C)cn(C)c(=O)c1C (stereo not shown) [Example 493] | 8.34 | 7.80 | 5.38
16 | Cc1c(-c2[nH]c3ccc(C4CC(NC5COC5)C4)cc3c2C(C)C)cn2ncnc2c1C (stereo not shown) [Example 576] | 8.13 | 7.64 | –
17 | Cc1cc(-c2[nH]c3ccc(C4CCC(C)(O)CC4)cc3c2C(C)C)cc(C)n1 (single isomer, unassigned) [Example 170] | 6.23 | 7.89 | –
18 | CN[C@H](C)C(=O)N1CCCC(c2ccc3[nH]c(-c4cc(C)nc(C)c4)c(C(C)C)c3c2)C1 (stereo partly shown) [Example 221] | 8.36 | – | 6.45
19 | Cc1c(-c2[nH]c3ccc(C4CC(NCC#N)C4)cc3c2C(C)C)cn2ncnc2c1C (stereo not shown) [Example 577] | 8.35 | 8.40 | –
20 | CCN(CC)CC(=O)N1CCOC(c2ccc3[nH]c(-c4cc(OC)c5ncnn5c4)c(C(C)C)c3c2)C1 (stereo not shown) [Example 333] | 8.33 | 9.15 | –
21 | COc1cc(-c2[nH]c3ccc(C4CCC(NC(=O)CNCC5COC(C)(C)O5)CC4)cc3c2C(C)C)cn2ncnc12 (stereo not shown) [Example 136] | 8.14 | – | 4.72
22 | Cc1c(-c2[nH]c3ccc(C4CNC4)cc3c2C(C)C)cn(C)c(=O)c1C [Example 486] | 7.89 | 7.72 | –
23 | COc1cc(-c2[nH]c3ccc(C4CCC(NC(=O)CN5CC(CO)(CO)C5)CC4)cc3c2C(C)C)cn2ncnc12 (stereo not shown) [Example 134] | 8.60 | 9.00 | –
